SMILES strings stand for the structures. Where “and” joins values, the source holds several entries; their conditions need not be identical. Identical values can stand only once.

Test [1] deals with rat cerebellar granule cell (CGC) cultures. In words: Dihydroethidine study to monitor intracellular superoxide production. The test is classed as cell-based. The conditions noted are these: CGC cultures during H2O2 treatment, 11,12-EET 1.2 μM. The method, then:
(§1) Cerebellar cortices of postnatal day 7 rat pups were isolated, incubated in 0.25% trypsin for 20 min and triturated with a 10-cc Falcon pipette. Cells were plated on Falcon plastic dishes ˜100,000 cells/cm^2 in BME medium containing 25 mM KCl. Cell cultures were maintained in a humidified 5% CO2 /37° C. incubator. 10 μM AraC was added from day 2-3 in vitro to suppress glial proliferation. Cells were studied at day 7-8 in vitro.
Dihydreothidine study to monitor intracellular superoxide production: 10 μl of dihydroethidine stock solution (1 mg/cc) in dimethylsulfoxide (DMSO) and 4 μl of H2O2 were added to 4cc of Eagle's Basal Medium (medium A). Each 2-cm^2 well of containing neuronal cell culture was preincubated with 11.12-EET (1.2 μM) for an hour and was replaced with 250 μL of medium A in the presence or absence of 11,12-EET (1.2 μM). […]
(§2) To test the effects of EET during oxidative stress, rat cerebellar granule cell (CGC) cultures were subjected to H2O2 treatment (225 μM for 10 min.). Less apoptosis was found at 24 hour when 11,12-EET (1.2 μM) was present compared to cell culture without 11,12-EET (51.7% vs. 87.6% respectively, p<0.01, scored by Hoechst stain for nuclear condensation). In addition, superoxide production (as monitored by oxidation of dihydroethidine) was decreased when 11,12-EET was present in CGC cultures during H2O2 treatment.

Test [2] has as its system mice subjected to middle cerebral artery occlusion. In words: Focal cerebral ischemia by middle cerebral artery occlusion, infarct volume. The test is classed as in vivo. The conditions noted are these: for Infarct Volume, individual animal / Infarct Volume, Mean: mice, MCA occlusion; for Infarct Volume, individual animal: 24 hours. The source says:
Young adult male mice (C57B1/J6, Jackson Laboratories) weighing 20-25 g, were given free access to food and water prior to experimentation.
(§3) Ischemia was produced by occluding the left middle cerebral artery (MCA) with a silicon-coated 8-0 nylon monofilament under anesthesia as described (Huang, Z et al., J Cereb Blood Flow Metab, 1996, 16:981-987, Huang, Z et al., Science, 1994, 265:1883-1885, Hara, H et al., J Cereb Blood Flow Metab, 1997, 1:515-526). Arterial blood pressure, heart rate, arterial oxygen pressure, and partial pressure of carbon dioxide were monitored as described (Huang, Z et al., J Cereb Blood Flow Metab, 1996, 16:981-987, Huang, Z et al., Science, 1994, 265:1883-1885, Hara, H et al., J Cereb Blood Flow Metab, 1997, 1:515-526).
11,12 EET (Sigma Chemical Co., St Louis, Mo.) or vehicle was administered by an infusion pump (Harvard Apparatus, South Natick, Mass.) with a tethering device (Instech, Plymouth Meeting, Pa.) into the femoral vein at the rate of 0.2 ml/hour for 2 hours beginning after the onset of ischemia to deliver a dose of 30, 100, and/or 300 μg/kg/hour. Control animals received the equivalent amount of vehicle alone. During infusion, the anesthesia was discontinued. […] After infusion, the animals were re-anesthetized with halothane and the venous catheter was removed. The filaments were withdrawn after 2 hours and after 24 hours, and mice were sacrificed. Brains were divided into five coronal 2-mm sections using a mouse brain matrix (RBM-200C, Activated Systems, Ann Arbor, Mich., USA). Infarction volume was quantitated with an image analysis system (M4, St. Catharines, Ontario, Canada) on 2% 2,3,5-triphenyltetrazolium chloride (Sigma Chemical Co., St Louis, Mo.) stained 2-mm slices.
(§4) Data is expressed as means ±SE. Statistical evaluation was performed by Student's t-test to compare infarct volumes between groups. Analysis of variance with repeated measures followed by Dunnett's t-test was used to test the significance of rCBF and resistance changes between groups. p<0.05 was considered statistically significant.

In test [3] the test system is rat cerebellar granule cell (CGC) cultures. In words: H2O2 oxidative stress, apoptosis scored by Hoechst stain for nuclear condensation. Format: cell-based. The conditions noted are these: H2O2 225 μM for 10 min, 11,12-EET 1.2 μM present; without 11,12-EET 87.6%; p<0.01. The method, then: as §1, §2
The subject of test [4] is mean arterial blood pressure (MABP) in mice. In words: Mean arterial blood pressure in animals with focal cerebral ischemia. Format: in vivo. The note with it: FIG. 3.
Description: as §3
In a separate set of ventilated, halothane-anesthetized animals, regional cerebral blood flow (rCBF) was determined at the margins (“penumbra”) of ischemic infarcts using laser Doppler flowmetry (Perimed, PF-2B, Stockholm, Sweden) and recorded on a MacLab/8 data acquisition system (AD Instruments, Milford, Mass.). the left femoral artery and vein were cannulated for blood pressure measurement, blood gas determination and drug administration, a fiberoptic probe (Perimed PF-319:2, diameter=0.5 mm) was fixed to the skull, 4 mm lateral and 2 mm posterior to bregma on the ipsilateral hemisphere and away from large pial vessels. […]

Test [5] has as its system regional cerebral blood flow (rCBF) in mice. In words: Regional cerebral blood flow by laser Doppler flowmetry after MCA occlusion. Format: in vivo. The protocol:
In a separate set of ventilated, halothane-anesthetized animals, regional cerebral blood flow (rCBF) was determined at the margins (“penumbra”) of ischemic infarcts using laser Doppler flowmetry (Perimed, PF-2B, Stockholm, Sweden) and recorded on a MacLab/8 data acquisition system (AD Instruments, Milford, Mass.). the left femoral artery and vein were cannulated for blood pressure measurement, blood gas determination and drug administration, a fiberoptic probe (Perimed PF-319:2, diameter=0.5 mm) was fixed to the skull, 4 mm lateral and 2 mm posterior to bregma on the ipsilateral hemisphere and away from large pial vessels. This coordinate identifies the site on the convex brain surface within the vascular territory supplied by the distal segment of the MCA (Huang, Z et al., Science, 1994, 265:1883-1885; Yang, G et al., Stroke, 1994, 25:165-70). rCBF was recorded continuously before, during and after MCA occlusion. The mean values after MCA occlusion and before administration were taken as baseline, and the data thereafter were expressed as percentages of the baseline value. The percent change in cerebrovascular resistance was calculated using the following formula: Δ%R=Δ% MABP/Δ% rCBF, where Δ% MABP is percent change in mean arterial blood pressure.
as §4
Physiological variables during laser-Doppler flowimetry in anesthetized, ventilated, EET-treated and vehicle-treated mice are shown in FIGS. 2 and 3. Values are reported as mean +/− SEM. CBF denotes cerebral blood flow; MABP indicates mean arterial blood pressure.
FIG. 2 is a graph showing regional CBF changes in EET-treated and vehicle-treated mice for 80 min after EET (300 μg/kg total dose) or vehicle infusion at a constant rate of 100 μl/kg/min over 20 min. Error bars denote standard error of the mean (SEM); CBF change with baseline control was determined by one-way ANOVA followed by Fisher's protected least-squares difference test. The increase in rCBF began at 5-10 minutes and achieved statistical significance at 10-15 minutes after infusion. Maximum values achieved at 40-60 min reached 50% above baseline levels.

Turning to `CCCCC/C=C\CC1OC1C/C=C\C/C=C\CCCC(=O)O` (stereo not drawn) [EET, 11,12-epoxyeicosatrienoic acid], the “Superoxide production (oxidation of dihydroethidine)” value in test [1] is listed as “decreased”. Further, the “Reduction of infarct volume in comparison to vehicle-treated animals” value in test [2] (300 μg/kg group, n=7, p<0.05) is “at least 41%”. The “Infarct volume, of hemispheric volume” value in test [2] (300 μg/kg group, n=7, vehicle 34±3, means ±SE) came to 20±3. The “Infarct Volume, individual animal” value in test [2] (EET 30 μg/kg i.v. infusion) was 32.4 mm^3 and 43.0 mm^3 and 41.9 mm^3 and 27.7 mm^3 and 37.4 mm^3 and 23.7 mm^3; in test [2] (EET 100 μg/kg i.v. infusion) it was 34.1 mm^3 and 37.6 mm^3 and 22.4 mm^3 and 16.3 mm^3 and 24.5 mm^3 and 38.6 mm^3 and 11.8 mm^3; in test [2] (EET 300 μg/kg i.v. infusion), 32.5 mm^3 and 13.4 mm^3 and 13.1 mm^3 and 28.3 mm^3 and 11.8 mm^3 and 25.6 mm^3 and 13.6 mm^3. Further, the “Infarct Volume, Mean” value in test [2] (EET 30 μg/kg, n=6) is 34.3 mm^3; in test [2] (EET 100 μg/kg, n=7) it was 26.5 mm^3; in test [2] (EET 300 μg/kg, n=7), 19.7 mm^3. Further, the “Apoptosis at 24 hour” value in test [3] was 51.7%. Moreover, in test [4], the “Change in MABP, EET-treated vs. vehicle-treated animals” value is on record as “No significant changes”. The “Time at which the increase in rCBF began” value in test [5] (300 μg/kg i.v.) was in the range of 5 to 10 min. Besides, the “Effect on rCBF in parietal cortex” value in test [5] (300 μg/kg i.v. total dose infused over 20 min, vehicle did not increase rCBF) was “increased rCBF”. For the same compound, in test [5] (300 μg/kg i.v., after infusion), the “Time at which the rCBF increase achieved statistical significance” value was 10 to 15 min. In addition, the “Maximum rCBF above baseline levels” value in test [5] (300 μg/kg i.v., at 40-60 min) came to 50%.

For the origin of these results see patent publication US20020077355A1, “Use of epoxyeicosatrienoic acids in the treatment of cerebrovascular conditions” (priority 2000, published 2002).
